Where two headings read alike, the source gives them in different places.
Key:
[1] = molecular target: P2X2/3 (Homo sapiens, UniProt P56373+Q9UBL9); conditions: Table 9, antagonists; cited from earlier work
[2] = tested on: EV71; test: Effects of other antagonists and agonists on EV71 (Table 9); type: cell-based, Enterovirus 71; set-up: key: “NO” indicates there is negative
[3] = molecular target: T1, P2X3 receptor (Homo sapiens, UniProt P56373); conditions: cited from earlier work
T1 sequence (P56373 1-397): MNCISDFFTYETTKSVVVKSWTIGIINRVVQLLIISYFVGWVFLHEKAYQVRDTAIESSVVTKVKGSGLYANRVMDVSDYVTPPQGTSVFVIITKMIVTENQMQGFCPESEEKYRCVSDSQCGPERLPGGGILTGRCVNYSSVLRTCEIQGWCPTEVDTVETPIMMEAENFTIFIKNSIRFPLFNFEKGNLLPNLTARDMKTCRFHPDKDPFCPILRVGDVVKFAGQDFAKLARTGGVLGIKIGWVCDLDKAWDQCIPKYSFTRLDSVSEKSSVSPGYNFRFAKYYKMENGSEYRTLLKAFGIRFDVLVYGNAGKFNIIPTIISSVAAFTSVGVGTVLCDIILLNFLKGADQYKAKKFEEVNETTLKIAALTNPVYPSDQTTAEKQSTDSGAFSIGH

[4] = molecular target: P2X5 receptor (Homo sapiens, UniProt Q93086); conditions: cited from earlier work
[5] = molecular target: T2, P2X1 receptor (Homo sapiens, UniProt P51575); set-up: key: −: no activity; +: activating concentration >10 μM; ++: activating concentration 1~10 μM; +++: activating concentration <1 μM; conditions: cited from earlier work
T2 sequence (P51575 1-399): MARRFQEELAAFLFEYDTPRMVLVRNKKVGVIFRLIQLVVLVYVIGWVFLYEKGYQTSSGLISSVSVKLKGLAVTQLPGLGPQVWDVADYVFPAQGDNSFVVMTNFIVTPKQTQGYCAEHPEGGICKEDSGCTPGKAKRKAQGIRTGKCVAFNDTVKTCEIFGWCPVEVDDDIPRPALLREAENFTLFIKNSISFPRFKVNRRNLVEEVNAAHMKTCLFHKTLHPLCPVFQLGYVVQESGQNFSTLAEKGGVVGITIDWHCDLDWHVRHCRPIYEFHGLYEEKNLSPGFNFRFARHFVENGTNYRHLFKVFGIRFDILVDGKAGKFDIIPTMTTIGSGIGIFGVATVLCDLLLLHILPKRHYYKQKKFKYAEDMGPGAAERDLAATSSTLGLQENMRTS

[6] = tested on: EV71; test: Inhibition of EV71 replication in RD cells at 0.1, 1, 10 and 100 μM (CPE, crystal violet); type: cell-based, Enterovirus 71; set-up: key to Inhibition of EV71 replication: −: no activity
Procedure: Inhibitory effect of each P2X receptor antagonists and agonists on EV71 replication was measured at 0.1, 1, 10, and 100 μM. Specific procedures refer to “1” of Example 1. after infection, however, cells need to be incubated for 3˜4 days, stained with crystal violet, and observed under optical microscope to determine whether or not CPE (cytopathic effect) was present. In addition, the effect of compounds at each concentration on cytotoxicity to RD cells was determined. After culturing RD cells in various concentrations of compounds for 3˜4 days, stained with crystal violet, and observed under optical microscope to observe whether or not cell layer was damaged. Compounds capable of protecting cells from infection without damage of healthy cell layer can inhibit EV71 replication in RD cells.

[7] = molecular target: T3, P2X4 receptor (Homo sapiens, UniProt Q99571); conditions: cited from earlier work
T3 sequence (Q99571 1-388): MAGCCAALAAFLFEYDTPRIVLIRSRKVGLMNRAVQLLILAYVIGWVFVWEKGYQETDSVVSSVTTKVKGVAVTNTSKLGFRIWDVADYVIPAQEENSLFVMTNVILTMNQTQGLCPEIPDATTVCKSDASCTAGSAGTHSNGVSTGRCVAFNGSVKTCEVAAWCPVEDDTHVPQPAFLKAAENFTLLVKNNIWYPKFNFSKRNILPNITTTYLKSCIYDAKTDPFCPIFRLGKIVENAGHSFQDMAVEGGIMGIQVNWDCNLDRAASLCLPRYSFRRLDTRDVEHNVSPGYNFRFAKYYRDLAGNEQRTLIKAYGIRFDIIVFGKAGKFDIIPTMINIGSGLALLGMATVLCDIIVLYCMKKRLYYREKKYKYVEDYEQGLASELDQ

[8] = molecular target: T4, P2X7 receptor (Homo sapiens, UniProt Q99572); conditions: cited from earlier work
T4 sequence (Q99572 1-595): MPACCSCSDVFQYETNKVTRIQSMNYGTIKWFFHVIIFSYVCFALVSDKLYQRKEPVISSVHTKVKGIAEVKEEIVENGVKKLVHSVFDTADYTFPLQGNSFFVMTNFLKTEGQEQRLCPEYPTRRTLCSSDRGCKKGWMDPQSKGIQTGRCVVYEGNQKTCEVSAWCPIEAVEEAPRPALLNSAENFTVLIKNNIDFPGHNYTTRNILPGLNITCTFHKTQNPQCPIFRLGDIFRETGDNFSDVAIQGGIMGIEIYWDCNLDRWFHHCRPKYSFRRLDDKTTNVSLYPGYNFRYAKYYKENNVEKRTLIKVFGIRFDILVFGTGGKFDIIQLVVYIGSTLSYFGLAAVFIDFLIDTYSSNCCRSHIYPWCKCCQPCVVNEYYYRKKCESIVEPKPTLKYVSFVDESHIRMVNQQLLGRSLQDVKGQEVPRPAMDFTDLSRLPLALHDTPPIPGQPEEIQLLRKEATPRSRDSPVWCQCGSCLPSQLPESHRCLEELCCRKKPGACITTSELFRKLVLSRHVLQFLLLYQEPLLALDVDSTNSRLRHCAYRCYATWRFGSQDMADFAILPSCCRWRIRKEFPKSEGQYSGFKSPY

[9] = molecular target: T5, P2X2 receptor (Homo sapiens, UniProt Q9UBL9); set-up: key: −: no activity; +: activating concentration >10 μM; ++: activating concentration 1~10 μM; +++: activating concentration <1 μM; conditions: cited from earlier work
T5 sequence (Q9UBL9 1-471): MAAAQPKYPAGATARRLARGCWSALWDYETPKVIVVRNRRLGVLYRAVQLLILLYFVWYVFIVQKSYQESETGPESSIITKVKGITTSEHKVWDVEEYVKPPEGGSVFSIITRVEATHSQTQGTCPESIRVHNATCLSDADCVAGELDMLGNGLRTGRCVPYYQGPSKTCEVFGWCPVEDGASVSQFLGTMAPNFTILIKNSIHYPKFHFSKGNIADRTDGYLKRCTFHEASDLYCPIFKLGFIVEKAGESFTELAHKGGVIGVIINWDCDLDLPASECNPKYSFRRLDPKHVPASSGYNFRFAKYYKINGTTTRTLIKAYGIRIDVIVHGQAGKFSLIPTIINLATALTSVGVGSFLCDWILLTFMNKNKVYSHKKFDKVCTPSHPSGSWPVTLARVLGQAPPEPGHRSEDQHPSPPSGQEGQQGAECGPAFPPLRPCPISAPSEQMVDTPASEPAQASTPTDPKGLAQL

[10] = tested on: EV71 FY-23; test: EV71 infection of adult rhesus monkeys: blood viral load and body temperature; type: in vivo, rhesus monkey (Macaca); conditions: 50 mg/kg suramin i.v.
Source text: 10 adult rhesus monkeys, which were detected negative for EV71 antibody (rhesus monkey (Macaca), Source: Institute of Medical Biology, Chinese Academy of Medical Sciences, Experimental animal use license number: SYXK (Yunnan) 2010-0009, Certification unit: Yunnan Provincial Science and Technology Agency), were randomly divided into two groups, namely: five in control group (aged about 4 years old, weighing about 5.3 kg, injected with physiological saline), 5 in treatment group (aged about 4.6 years old, weighs about 5.44 kg, injected with 50 mg/kg suramin). Multiple intravenous injections of suramin (50 mg/kg) were used. […] Specific experimental procedure is as follows:
Then, drug was administered intravenously at a dose (50 mg/kg suramin or physiological saline).
Intravenous viral challenge was performed with 4.5 lgCCID50 EV71 FY-23.
Whole blood RNA extraction: obtained 0.2 ml blood, added 0.8 ml TRNzol-A^+, after mixing, placed the well at room temperature for 10 min; added 0.2 ml chloroform, tightened cover lid, vigorously shaking for 15 sec, placed at room temperature for 5 min, centrifuged at 12500 rpm, 4° C., 20 min, 0.4 ml of aqueous phase was transferred to another fresh tube, equal volume of isopropanol was added, mixed, placed at room temperature for 30 min; centrifuged at 12500 rpm, 4° C., 20 min, supernatant was discarded, 1 ml of 75% ethanol was added to wash precipitates, centrifuged at 12500 rpm, 4° C., 30 min. Supernatant discarded, placed at room temperature for 30 min, RNA dried, 20 μl RNase-free ddH2O added, and RNA fully dissolved. Viral load was determined by measurement method as follows:
1) Standard dilutions: obtaining standards (performed according to TaKaRa MiniBEST Viral RNA/DNA extraction Kit Ver 3.0 instructions), 10 μl standards were obtained, 10-fold serial dilutions 10^6, 10^5, 10^4, 10^3, 10^2, 10^1, 10^0.
2) Primer sequences (Taqman probe method):
3) Preparing RT-PCR reaction solution (reaction solutions were prepared on ice):
4) Performing Real Time One Step RT-PCR.

Sequence of P2X5 receptor (Q93086 whole entry): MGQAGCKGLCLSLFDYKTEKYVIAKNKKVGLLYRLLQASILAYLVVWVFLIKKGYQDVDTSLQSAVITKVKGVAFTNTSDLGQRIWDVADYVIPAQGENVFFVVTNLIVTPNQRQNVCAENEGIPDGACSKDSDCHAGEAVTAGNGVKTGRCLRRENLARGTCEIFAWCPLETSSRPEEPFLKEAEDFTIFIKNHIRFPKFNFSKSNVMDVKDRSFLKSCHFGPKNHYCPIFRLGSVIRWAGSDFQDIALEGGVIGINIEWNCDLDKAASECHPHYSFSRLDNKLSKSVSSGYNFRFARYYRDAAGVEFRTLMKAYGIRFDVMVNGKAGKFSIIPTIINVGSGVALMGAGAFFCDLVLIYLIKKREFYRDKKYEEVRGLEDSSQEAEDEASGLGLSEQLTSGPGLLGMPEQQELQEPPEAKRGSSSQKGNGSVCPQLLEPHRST

| Molecule | EV71 Log10 reduction [2] | P2X receptors 5 ([4]; Table 8, agonists) | P2X receptors 5 ([4]; Table 9, agonists) | P2X receptors 1 ([5]; Table 8, agonists) | Inhibition of EV71 replication ([6]; Table 8, agonists) | P2X receptors 3 ([3]; Table 8, agonists) | P2X receptors 4 ([7]; Table 8, agonists) | P2X receptors 2 ([9]; Table 8, agonists) | other results |
| --- | --- | --- | --- | --- | --- | --- | --- | --- | --- |
| COc1cc(Cc2cnc(N)nc2N)c(C(C)C)cc1OC [RO-3] | NO |  |  |  |  |  |  |  | Heteromultimer [1]: ✓ P2X2/3 (✓ activating concentration >300 nM); P2X receptors 3 ([3]; Table 9, antagonists): ✓ ✓ (✓ ✓ activating concentration 10 nM-300 nM) |
| bzATP | NO | ++ (++: activating concentration 1~10 μM) | ✓ ✓ (✓ ✓ activating concentration 1-10 μM) | +++ (+++: activating concentration <1 μM) | − | + (+: activating concentration >10 μM) | +++ (+++: activating concentration <1 μM) | ++ (++: activating concentration 1~10 μM) | P2X receptors 1 ([5]; Table 9, agonists): ✓ ✓ ✓ (✓ ✓ ✓ activating concentration <1 μM); P2X receptors 3 ([3]; Table 9, agonists): ✓ (✓ activating concentration >10 μM); P2X receptors 4 ([7]; Table 9, agonists): ✓ ✓ ✓ (✓ ✓ ✓ activating concentration <1 μM); P2X receptors 7 ([8]; Table 8, agonists): ++ (++: activating concentration 1~10 μM); P2X receptors 7 ([8]; Table 9, agonists): ✓ ✓ ✓ (✓ ✓ ✓ activating concentration <1 μM); P2X receptors 2 ([9]; Table 9, agonists): ✓ ✓ (✓ ✓ activating concentration 1-10 μM) |
| Ivermectine | NO |  |  |  | − |  | ++ (++: activating concentration 1~10 μM) |  | P2X receptors 4 ([7]; Table 9, modulator, no key printed for this class): ✓ ✓ ✓ |
| O=C(Nc1ccc(C(=O)Nc2ccc(C(=O)Nc3ccc(S(=O)(=O)O)c4cc(S(=O)(=O)O)cc(S(=O)(=O)O)c34)cc2)cc1)Nc1ccc(C(=O)Nc2ccc(C(=O)Nc3ccc(S(=O)(=O)O)c4cc(S(=O)(=O)O)cc(S(=O)(=O)O)c34)cc2)cc1 [NF279, 8,8′-(carbonylbis(imino-4,1-phenylenecarbonylimino-4,1-phenylenecarbonylimino))bis(1,3,5-naphthalenetrisulfonic acid)] |  |  |  |  |  |  |  |  | P2X receptors 1 ([5]; Table 8, antagonists): +++ (+++: inhibitory concentration <10 nM); inhibition of EV71 replication (statement in words) [6]: can also inhibit EV71 replication; Inhibition of EV71 replication ([6]; Table 8, antagonists): + (+: inhibitory concentration >300 nM); P2X receptors 3 ([3]; Table 8, antagonists): + (+: inhibitory concentration >300 nM); P2X receptors 4 ([7]; Table 8, antagonists): −; P2X receptors 7 ([8]; Table 8, antagonists): + (+: inhibitory concentration >300 nM); P2X receptors 2 ([9]; Table 8, antagonists): + (+: inhibitory concentration >300 nM) |
| Cc1ccc(C(=O)Nc2ccc(S(=O)(=O)O)c3cc(S(=O)(=O)O)cc(S(=O)(=O)O)c23)cc1NC(=O)c1cccc(NC(=O)Nc2cccc(C(=O)Nc3cc(C(=O)Nc4ccc(S(=O)(=O)O)c5cc(S(=O)(=O)O)cc(S(=O)(=O)O)c45)ccc3C)c2)c1 [suramin, Suramin] |  |  |  |  |  |  |  |  | viral load compared with control group ([10]; rhesus monkeys): significantly lower; blood viral load of drug treatment group (average) ([10]; 4th, 7th and 13th days after viral challenge, control peak 1-1.5×10^3 copies/ml): 1.5×10^1 copies/ml; body temperature after infection ([10]; control group showed a rise 1 day after infection): essentially maintained body temperatures within normal range |
| O=c1ccn([C@@H]2O[C@H](COP(=O)(O)OP(=O)(O)OP(=O)(O)O)[C@@H](O)[C@H]2O)c(=O)[nH]1 [UTP, uridine triphosphate] | NO | + (+: activating concentration >10 μM) | ✓ (✓ activating concentration >10 μM) | − | − | − | − | − |  |

Reference: patent publication US9872875B2, “Component and method for treating viral disease” (Institut Pasteur of Shanghai, Chinese Academy of Sciences, priority 2012, dated 2018)
